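These data come from cells grown in 96-well plates and exposed to compound for 48 hours at five concentrations. Abbreviation: GI50, concentration required for 50% inhibition of growth. At the TGI there is no net growth.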
Experiments:
Experiment in all cases: NCI-60 cell line screen, 48 h; in the data active means GI50 below about 0.43 µM; inactive means the rest
MALME-3M melanoma = system: MALME-3M melanoma
RPMI-8226 leukemia = system: RPMI-8226 leukemia
SF-539 CNS = system: SF-539 CNS
HCT-15 colon = system: HCT-15 colon
IGROV1 ovarian = system: IGROV1 ovarian
CCRF-CEM leukemia = system: CCRF-CEM leukemia
HCT-116 colon = system: HCT-116 colon
SW-620 colon = system: SW-620 colon
NCI-H226 lung = system: NCI-H226 lung
NCI-H23 lung = system: NCI-H23 lung
SN12C renal = system: SN12C renal
HL-60(TB) leukemia = system: HL-60(TB) leukemia
NCI-H522 lung = system: NCI-H522 lung
SR leukemia = system: SR leukemia
HT29 colon = system: HT29 colon
PC-3 prostate = system: PC-3 prostate
OVCAR-3 ovarian = system: OVCAR-3 ovarian
MOLT-4 leukemia = system: MOLT-4 leukemia
MDA-MB-435 = system: MDA-MB-435
ACHN renal = system: ACHN renal
DU-145 prostate = system: DU-145 prostate
TK-10 renal = system: TK-10 renal
HOP-92 NSCLC = system: HOP-92 NSCLC
RXF 393 renal = system: RXF 393 renal
LOX IMVI melanoma = system: LOX IMVI melanoma
SNB-75 CNS = system: SNB-75 CNS
UACC-62 melanoma = system: UACC-62 melanoma
MCF7 breast = system: MCF7 breast
HS 578T breast = system: HS 578T breast
786-0 renal = system: 786-0 renal
KM12 colon = system: KM12 colon
U251 CNS = system: U251 CNS
UACC-257 melanoma = system: UACC-257 melanoma
BT-549 breast = system: BT-549 breast
OVCAR-8 ovarian = system: OVCAR-8 ovarian
T-47D breast = system: T-47D breast
SNB-19 CNS = system: SNB-19 CNS
SK-MEL-2 melanoma = system: SK-MEL-2 melanoma
SK-MEL-28 melanoma = system: SK-MEL-28 melanoma
OVCAR-5 ovarian = system: OVCAR-5 ovarian
UO-31 renal = system: UO-31 renal
CAKI-1 renal = system: CAKI-1 renal
SK-OV-3 ovarian = system: SK-OV-3 ovarian
SK-MEL-5 melanoma = system: SK-MEL-5 melanoma
SF-268 CNS = system: SF-268 CNS
A498 renal = system: A498 renal
SF-295 CNS = system: SF-295 CNS
EKVX NSCLC = system: EKVX NSCLC
NCI-H460 lung = system: NCI-H460 lung
MDA-MB-231 breast = system: MDA-MB-231 breast
K-562 leukemia = system: K-562 leukemia
HOP-62 NSCLC = system: HOP-62 NSCLC
NCI/ADR-RES ovarian = system: NCI/ADR-RES ovarian
OVCAR-4 ovarian = system: OVCAR-4 ovarian
HCC-2998 colon = system: HCC-2998 colon
COLO 205 colon = system: COLO 205 colon
A549 NSCLC = system: A549 NSCLC
M14 melanoma = system: M14 melanoma

CCN(CC)S(=O)(=O)c1ccc(-c2nc(C(Cl)Cl)nc3cc(-c4ccc(F)cc4)nn23)cc1
7270 nM: TGI (MDA-MB-231 breast)
3570 nM: TGI (ACHN renal)
4150 nM: TGI (HCC-2998 colon)
4770 nM: TGI (HT29 colon)
8880 nM: TGI (SF-539 CNS)
6650 nM: TGI (HL-60(TB) leukemia)
12800 nM: TGI (SF-295 CNS)
8990 nM: TGI (UO-31 renal)
5470 nM: TGI (HOP-92 NSCLC)
6160 nM: TGI (COLO 205 colon)
14400 nM: TGI (U251 CNS)
93200 nM: TGI (HS 578T breast)
13300 nM: TGI (CAKI-1 renal)
20600 nM: TGI (NCI-H23 lung)
8720 nM: TGI (TK-10 renal)
4700 nM: TGI (A498 renal)
9430 nM: TGI (KM12 colon)
6570 nM: TGI (EKVX NSCLC)
10800 nM: TGI (SK-MEL-28 melanoma)
10100 nM: TGI (A549 NSCLC)
3410 nM: TGI (RXF 393 renal)
2870 nM: TGI (OVCAR-3 ovarian)
3790 nM: TGI (RPMI-8226 leukemia)
inactive: GI50 (MALME-3M melanoma) > 100000 nM | GI50 (RPMI-8226 leukemia) 733 nM | GI50 (SF-539 CNS) 2240 nM | GI50 (HCT-15 colon) 1320 nM | GI50 (IGROV1 ovarian) 3380 nM | GI50 (CCRF-CEM leukemia) > 100000 nM | GI50 (HCT-116 colon) 1730 nM | GI50 (SW-620 colon) 1410 nM | GI50 (NCI-H226 lung) 3770 nM | GI50 (NCI-H23 lung) 2490 nM | GI50 (SN12C renal) 15700 nM | GI50 (HL-60(TB) leukemia) 1580 nM | GI50 (NCI-H522 lung) > 100000 nM | GI50 (SR leukemia) 2690 nM | GI50 (HT29 colon) 1550 nM | GI50 (PC-3 prostate) 2610 nM | GI50 (OVCAR-3 ovarian) 1150 nM | GI50 (MOLT-4 leukemia) 8190 nM | GI50 (MDA-MB-435) 3020 nM | GI50 (ACHN renal) 1160 nM | GI50 (DU-145 prostate) 1340 nM | GI50 (TK-10 renal) 2990 nM | GI50 (HOP-92 NSCLC) 2000 nM | GI50 (RXF 393 renal) 1540 nM | GI50 (LOX IMVI melanoma) 6370 nM | GI50 (SNB-75 CNS) 11700 nM | GI50 (UACC-62 melanoma) 4030 nM | GI50 (MCF7 breast) 2660 nM | GI50 (HS 578T breast) 3560 nM | GI50 (786-0 renal) 5370 nM | GI50 (KM12 colon) 1890 nM | GI50 (U251 CNS) 2210 nM | GI50 (UACC-257 melanoma) 5510 nM | GI50 (BT-549 breast) 18500 nM | GI50 (OVCAR-8 ovarian) 3940 nM | GI50 (T-47D breast) 2940 nM | GI50 (SNB-19 CNS) 3700 nM | GI50 (SK-MEL-2 melanoma) > 100000 nM | GI50 (SK-MEL-28 melanoma) 2730 nM | GI50 (OVCAR-5 ovarian) 3040 nM | GI50 (UO-31 renal) 2270 nM | GI50 (CAKI-1 renal) 2380 nM | GI50 (SK-OV-3 ovarian) 4090 nM | GI50 (SK-MEL-5 melanoma) > 100000 nM | GI50 (SF-268 CNS) 5140 nM | GI50 (A498 renal) 1330 nM | GI50 (SF-295 CNS) 2290 nM | GI50 (EKVX NSCLC) 2280 nM | GI50 (NCI-H460 lung) 923 nM | GI50 (MDA-MB-231 breast) 2010 nM | GI50 (K-562 leukemia) 1830 nM | GI50 (HOP-62 NSCLC) 3210 nM | GI50 (NCI/ADR-RES ovarian) 2240 nM | GI50 (OVCAR-4 ovarian) 3710 nM | GI50 (HCC-2998 colon) 1890 nM | GI50 (COLO 205 colon) 2020 nM | GI50 (A549 NSCLC) 2520 nM
2980 nM: TGI (DU-145 prostate)
3070 nM: TGI (NCI-H460 lung)
> 100000 nM: TGI (MALME-3M melanoma) | TGI (HCT-15 colon) | TGI (IGROV1 ovarian) | TGI (CCRF-CEM leukemia) | TGI (HCT-116 colon) | TGI (SW-620 colon) | TGI (NCI-H226 lung) | TGI (SN12C renal) | TGI (NCI-H522 lung) | TGI (SR leukemia) | TGI (MOLT-4 leukemia) | TGI (MDA-MB-435) | TGI (LOX IMVI melanoma) | TGI (SNB-75 CNS) | TGI (UACC-62 melanoma) | TGI (MCF7 breast) | TGI (786-0 renal) | TGI (UACC-257 melanoma) | TGI (BT-549 breast) | TGI (OVCAR-8 ovarian) | TGI (T-47D breast) | TGI (SNB-19 CNS) | TGI (SK-MEL-2 melanoma) | TGI (OVCAR-5 ovarian) | TGI (SK-OV-3 ovarian) | TGI (SK-MEL-5 melanoma) | TGI (SF-268 CNS) | TGI (K-562 leukemia) | TGI (HOP-62 NSCLC) | TGI (NCI/ADR-RES ovarian) | TGI (OVCAR-4 ovarian)
18600 nM: TGI (PC-3 prostate)

FC(F)(F)c1cc(Br)cc(-c2cc(-c3ccc4c(c3)OCCO4)[nH]n2)c1
> 52100 nM: TGI (KM12 colon)
> 38500 nM: TGI (PC-3 prostate)
69.4 nM: TGI (NCI-H522 lung)
533 nM: TGI (HT29 colon)
13900 nM: TGI (NCI-H460 lung)
> 38100 nM: TGI (A549 NSCLC)
> 39500 nM: TGI (CCRF-CEM leukemia)
4400 nM: TGI (SN12C renal)
2540 nM: TGI (SK-MEL-5 melanoma)
2220 nM: TGI (BT-549 breast)
925 nM: TGI (SNB-75 CNS)
757 nM: TGI (SF-539 CNS)
> 38600 nM: TGI (M14 melanoma)
4860 nM: TGI (U251 CNS)
5510 nM: TGI (HOP-92 NSCLC)
773 nM: TGI (MDA-MB-435)
283 nM: TGI (A498 renal) | TGI (COLO 205 colon)
63400 nM: TGI (TK-10 renal)
3780 nM: TGI (786-0 renal)
active: GI50 (RPMI-8226 leukemia) 306 nM | GI50 (SF-539 CNS) 65.1 nM | GI50 (IGROV1 ovarian) 153 nM | GI50 (CCRF-CEM leukemia) 87.5 nM | GI50 (HCT-116 colon) 42.4 nM | GI50 (SW-620 colon) 54 nM | GI50 (NCI-H226 lung) 214 nM | GI50 (NCI-H23 lung) 376 nM | GI50 (M14 melanoma) 76.5 nM | GI50 (SN12C renal) 144 nM | GI50 (HL-60(TB) leukemia) 33.6 nM | GI50 (NCI-H522 lung) 23.6 nM | GI50 (SR leukemia) 36.4 nM | GI50 (HT29 colon) 42.6 nM | GI50 (PC-3 prostate) 70.5 nM | GI50 (MOLT-4 leukemia) 196 nM | GI50 (MDA-MB-435) 26.4 nM | GI50 (ACHN renal) 75.2 nM | GI50 (DU-145 prostate) 284 nM | GI50 (RXF 393 renal) 47.8 nM | GI50 (LOX IMVI melanoma) 29.6 nM | GI50 (SNB-75 CNS) 120 nM | GI50 (UACC-62 melanoma) 39 nM | GI50 (MCF7 breast) 59 nM | GI50 (HS 578T breast) 259 nM | GI50 (786-0 renal) 56.5 nM | GI50 (KM12 colon) 59.6 nM | GI50 (U251 CNS) 78.5 nM | GI50 (BT-549 breast) 56.7 nM | GI50 (OVCAR-8 ovarian) 213 nM | GI50 (SNB-19 CNS) 108 nM | GI50 (SK-MEL-2 melanoma) 162 nM | GI50 (OVCAR-5 ovarian) 348 nM | GI50 (UO-31 renal) 201 nM | GI50 (CAKI-1 renal) 79.3 nM | GI50 (SK-OV-3 ovarian) 124 nM | GI50 (SK-MEL-5 melanoma) 84.1 nM | GI50 (A498 renal) 36.3 nM | GI50 (SF-295 CNS) 31.8 nM | GI50 (NCI-H460 lung) 60.5 nM | GI50 (MDA-MB-231 breast) 78.5 nM | GI50 (K-562 leukemia) 37.3 nM | GI50 (HOP-62 NSCLC) 226 nM | GI50 (NCI/ADR-RES ovarian) 51.7 nM | GI50 (HCC-2998 colon) 290 nM | GI50 (COLO 205 colon) 109 nM | GI50 (A549 NSCLC) 146 nM
1620 nM: TGI (HCT-116 colon)
inactive: GI50 (MALME-3M melanoma) 1600 nM | GI50 (TK-10 renal) 12300 nM | GI50 (HOP-92 NSCLC) 1150 nM | GI50 (UACC-257 melanoma) 2710 nM | GI50 (T-47D breast) 683 nM | GI50 (SK-MEL-28 melanoma) 2680 nM | GI50 (SF-268 CNS) 753 nM | GI50 (EKVX NSCLC) 645 nM
1470 nM: TGI (OVCAR-8 ovarian)
> 22900 nM: TGI (RPMI-8226 leukemia)
450 nM: TGI (RXF 393 renal)
> 100000 nM: TGI (MALME-3M melanoma) | TGI (IGROV1 ovarian) | TGI (SW-620 colon) | TGI (NCI-H226 lung) | TGI (NCI-H23 lung) | TGI (SR leukemia) | TGI (MOLT-4 leukemia) | TGI (ACHN renal) | TGI (DU-145 prostate) | TGI (LOX IMVI melanoma) | TGI (UACC-62 melanoma) | TGI (MCF7 breast) | TGI (HS 578T breast) | TGI (UACC-257 melanoma) | TGI (T-47D breast) | TGI (SNB-19 CNS) | TGI (SK-MEL-2 melanoma) | TGI (SK-MEL-28 melanoma) | TGI (OVCAR-5 ovarian) | TGI (UO-31 renal) | TGI (CAKI-1 renal) | TGI (SF-268 CNS) | TGI (EKVX NSCLC) | TGI (MDA-MB-231 breast) | TGI (K-562 leukemia) | TGI (HOP-62 NSCLC) | TGI (NCI/ADR-RES ovarian) | TGI (OVCAR-4 ovarian) | TGI (HCC-2998 colon)
> 56600 nM: TGI (SK-OV-3 ovarian)
